Data published in patent US9006250B2, “4-amino-6-(heterocyclic)picolinates and 6-amino-2-(heterocyclic)pyrimidine-4-carboxylates and their use as herbicides” (Dow AgroSciences, LLC, priority 2013, dated 2015).

How the values were obtained:
Experiment in all cases: Post-Emergent Test II herbicidal activity
Type in all cases: in vivo
[1] = test system: CHEAL: lambsquarters (Chenopodium album); conditions: post-emergence, 336 h, 14 days, read-out: Visual Growth Reduction (%) 14 Days After Application CHEAL; for pest or weed control at 35 g/ha: 35 g ai/ha; for pest or weed control at 70 g/ha: 70 g ai/ha; for pest or weed control at 140 g/ha: 140 g ai/ha
Description: (§1) Post-Emergent Test II: Seeds or nutlets of the desired test plant species were planted in Sun Gro Metro-Mix® 360 planting mixture, which typically has a pH of 6.0 to 6.8 and an organic matter content of about 30 percent, in plastic pots with a surface area of 64 square centimeters. When required to ensure good germination and healthy plants, a fungicide treatment and/or other chemical or physical treatment was applied. The plants were grown for 7-21 d in a greenhouse with an approximate 15 h photoperiod which was maintained at about 23-29° C. during the day and 22-28° C. during the night. Nutrients and water were added on a regular basis and supplemental lighting was provided with overhead metal halide 1000-Watt lamps as necessary. The plants were employed for testing when they reached the first or second true leaf stage.
(§2) A weighed amount, determined by the highest rate to be tested, of each test compound was placed in a 25 mL glass vial and was dissolved in 4 mL of a 97:3 v/v mixture of acetone and DMSO to obtain concentrated stock solutions. […] The concentrated stock solutions obtained were diluted with 20 mL of an aqueous mixture containing acetone, water, isopropyl alcohol, DMSO, Atplus 411F crop oil concentrate, and Triton® X-155 surfactant in a 48.5:39:10:1.5:1.0:0.02 v/v ratio to obtain spray solutions containing the highest application rates. Additional application rates were obtained by serial dilution of 12 mL of the high rate solution into a solution containing 2 mL of 97:3 v/v mixture of acetone and DMSO and 10 mL of an aqueous mixture containing acetone, water, isopropyl alcohol, DMSO, Atplus 411F crop oil concentrate, and Triton X®-155 surfactant in a 48.5:39:10:1.5:1.0:0.02 v/v ratio to obtain ½×, ¼×, ⅛× and 1/16× rates of the high rate. Compound requirements are based upon a 12 mL application volume at a rate of 187 liters per hectare (L/ha). Formulated compounds were applied to the plant material with an overhead Mandel track sprayer equipped with 8002E nozzles calibrated to deliver 187 L/ha over an application area of 0.503 square meters at a spray height of 18 inches […] above the average plant canopy height. Control plants were sprayed in the same manner with the solvent blank.
(§3) The treated plants and control plants were placed in a greenhouse as described above and watered by subirrigation to prevent wash-off of the test compounds. After 14 d, the condition of the test plants as compared with that of the untreated plants was determined visually and scored on a scale of 0 to 100 percent where 0 corresponds to no injury and 100 corresponds to complete kill.

[2] = test system: ZEAMX: maize, corn (Zea mays); conditions: post-emergence, 336 h, 14 days, read-out: Visual Growth Reduction (%) 14 Days After Application ZEAMX; for pest or weed control at 35 g/ha: 35 g ai/ha; for pest or weed control at 70 g/ha: 70 g ai/ha; for pest or weed control at 140 g/ha: 140 g ai/ha
Description: as §1, §2, §3

[3] = test system: ORYSA: rice (Oryza sativa); conditions: post-emergence, 336 h, 14 days, read-out: Visual Growth Reduction (%) 14 Days After Application ORYSA; for pest or weed control at 35 g/ha: 35 g ai/ha; for pest or weed control at 70 g/ha: 70 g ai/ha; for pest or weed control at 140 g/ha: 140 g ai/ha
Description: as §1, §2, §3

[4] = test system: ECHCG: barnyardgrass (Echinochloa crus-galli); conditions: post-emergence, 336 h, 14 days, read-out: Visual Growth Reduction (%) 14 Days After Application ECHCG; for pest or weed control at 35 g/ha: 35 g ai/ha; for pest or weed control at 70 g/ha: 70 g ai/ha; for pest or weed control at 140 g/ha: 140 g ai/ha
Description: as §1, §2, §3

[5] = test system: BRSNN: oilseed rape, canola (Brassica napus); conditions: post-emergence, 336 h, 14 days, read-out: Visual Growth Reduction (%) 14 Days After Application BRSNN; for pest or weed control at 35 g/ha: 35 g ai/ha; for pest or weed control at 70 g/ha: 70 g ai/ha; for pest or weed control at 140 g/ha: 140 g ai/ha
Description: as §1, §2, §3

[6] = test system: AMARE: redroot pigweed (Amaranthus retroflexus); conditions: post-emergence, 336 h, 14 days, read-out: Visual Growth Reduction (%) 14 Days After Application AMARE
Description: as §1, §2, §3

[7] = test system: TRZAS: wheat, spring (Triticum aestivum); conditions: post-emergence, 336 h, 14 days, read-out: Visual Growth Reduction (%) 14 Days After Application TRZAS; for pest or weed control at 35 g/ha: 35 g ai/ha; for pest or weed control at 70 g/ha: 70 g ai/ha; for pest or weed control at 140 g/ha: 140 g ai/ha
Description: as §1, §2, §3

[8] = test system: EPHHL: wild poinsettia (Euphorbia heterophylla); conditions: post-emergence, 336 h, 14 days, read-out: Visual Growth Reduction (%) 14 Days After Application EPHHL; for pest or weed control at 35 g/ha: 35 g ai/ha; for pest or weed control at 70 g/ha: 70 g ai/ha; for pest or weed control at 140 g/ha: 140 g ai/ha
Description: as §1, §2, §3

[9] = test system: CYPES: yellow nutsedge (Cyperus esculentus); conditions: post-emergence, 336 h, 14 days, read-out: Visual Growth Reduction (%) 14 Days After Application CYPES; for pest or weed control at 35 g/ha: 35 g ai/ha; for pest or weed control at 70 g/ha: 70 g ai/ha; for pest or weed control at 140 g/ha: 140 g ai/ha
Description: as §1, §2, §3

[10] = test system: HELAN: sunflower (Helianthus annuus); conditions: post-emergence, 336 h, 14 days, read-out: Visual Growth Reduction (%) 14 Days After Application HELAN; for pest or weed control at 35 g/ha: 35 g ai/ha; for pest or weed control at 70 g/ha: 70 g ai/ha; for pest or weed control at 140 g/ha: 140 g ai/ha
Description: as §1, §2, §3

[11] = test system: ABUTH: velvetleaf (Abutilon theophrasti); conditions: post-emergence, 336 h, 14 days, read-out: Visual Growth Reduction (%) 14 Days After Application ABUTH; for pest or weed control at 35 g/ha: 35 g ai/ha; for pest or weed control at 70 g/ha: 70 g ai/ha; for pest or weed control at 140 g/ha: 140 g ai/ha
Description: as §1, §2, §3

[12] = test system: SETFA: giant foxtail (Setaria faberi); conditions: post-emergence, 336 h, 14 days, read-out: Visual Growth Reduction (%) 14 Days After Application SETFA; for pest or weed control at 35 g/ha: 35 g ai/ha; for pest or weed control at 70 g/ha: 70 g ai/ha; for pest or weed control at 140 g/ha: 140 g ai/ha
Description: as §1, §2, §3

Structure (SMILES)	pest or weed control at 35 g/ha [1]	pest or weed control at 70 g/ha [1]	pest or weed control at 140 g/ha [1]	pest or weed control at 35 g/ha [2]	pest or weed control at 70 g/ha [2]	pest or weed control at 140 g/ha [2]	pest or weed control at 35 g/ha [3]	pest or weed control at 70 g/ha [3]	pest or weed control at 140 g/ha [3]	pest or weed control at 35 g/ha [4]	pest or weed control at 70 g/ha [4]	pest or weed control at 140 g/ha [4]	pest or weed control at 35 g/ha [5]	pest or weed control at 70 g/ha [5]	pest or weed control at 140 g/ha [5]	pest or weed control at 35 g/ha [7]	pest or weed control at 70 g/ha [7]	pest or weed control at 140 g/ha [7]	pest or weed control at 35 g/ha [8]	pest or weed control at 70 g/ha [8]	also measured
Nc1c(F)c(-c2ccc3nonc3c2)nc(C(=O)O)c1Cl [Compound 2, 4-Amino-6-(benzo[c][1,2,5]oxadiazol-5-yl)-3-chloro-5-fluoropicolinic acid]	95 to 100%	95 to 100%	95 to 100%	60 to 74%	60 to 74%	60 to 74%	0 to 29%	0 to 29%	0 to 29%	60 to 74%	75 to 84%	75 to 84%	60 to 74%	75 to 84%	75 to 84%	60 to 74%	60 to 74%	60 to 74%	60 to 74%	60 to 74%	pest or weed control at 35 g/ha ([6]; 35 g ai/ha): 95 to 100%; pest or weed control at 70 g/ha ([6]; 70 g ai/ha): 95 to 100%; pest or weed control at 140 g/ha ([6]; 140 g ai/ha): 95 to 100%; pest or weed control at 140 g/ha [8]: 60 to 74%; pest or weed control at 35 g/ha [9]: 0 to 29%; pest or weed control at 70 g/ha [9]: 0 to 29%; pest or weed control at 140 g/ha [9]: 0 to 29%; pest or weed control at 35 g/ha [10]: 85 to 94%; pest or weed control at 70 g/ha [10]: 85 to 94%; pest or weed control at 140 g/ha [10]: 95 to 100%; pest or weed control at 35 g/ha [11]: 75 to 84%; pest or weed control at 70 g/ha [11]: 75 to 84%; pest or weed control at 140 g/ha [11]: 85 to 94%
COc1cc2nonc2cc1-c1cc(N)c(Cl)c(C(=O)O)n1 [Compound 5, 4-Amino-3-chloro-6-(6-methoxybenzo[c][1,2,5]oxadiazol-5-yl)picolinic acid]	0 to 29%	0 to 29%	0 to 29%	0 to 29%	0 to 29%	0 to 29%	0 to 29%	0 to 29%	0 to 29%	0 to 29%	0 to 29%	0 to 29%	0 to 29%	0 to 29%	0 to 29%	0 to 29%	0 to 29%	0 to 29%	0 to 29%	0 to 29%	pest or weed control at 35 g/ha [12]: 0 to 29%; pest or weed control at 70 g/ha [12]: 0 to 29%; pest or weed control at 140 g/ha [12]: 0 to 29%; pest or weed control at 140 g/ha [8]: 0 to 29%; pest or weed control at 35 g/ha [9]: 0 to 29%; pest or weed control at 70 g/ha [9]: 0 to 29%; pest or weed control at 140 g/ha [9]: 0 to 29%; pest or weed control at 35 g/ha [10]: 0 to 29%; pest or weed control at 70 g/ha [10]: 0 to 29%; pest or weed control at 140 g/ha [10]: 0 to 29%; pest or weed control at 35 g/ha [11]: 0 to 29%; pest or weed control at 70 g/ha [11]: 0 to 29%; pest or weed control at 140 g/ha [11]: 0 to 29%
COC(=O)c1nc(-c2cc3nonc3cc2F)nc(N)c1OC [Compound 10, Methyl 6-amino-2-(6-fluorobenzo[c][1,2,5]oxadiazol-5-yl)-5-methoxypyrimidine-4-carboxylate]	0 to 29%	0 to 29%	0 to 29%	0 to 29%	0 to 29%	0 to 29%	0 to 29%	0 to 29%	0 to 29%	0 to 29%	0 to 29%	0 to 29%	60 to 74%	75 to 84%	75 to 84%	0 to 29%	0 to 29%	0 to 29%	45 to 59%	60 to 74%	pest or weed control at 35 g/ha [12]: 0 to 29%; pest or weed control at 70 g/ha [12]: 0 to 29%; pest or weed control at 140 g/ha [12]: 0 to 29%; pest or weed control at 140 g/ha [8]: 75 to 84%; pest or weed control at 35 g/ha [9]: 0 to 29%; pest or weed control at 70 g/ha [9]: 0 to 29%; pest or weed control at 140 g/ha [9]: 0 to 29%; pest or weed control at 35 g/ha [10]: 0 to 29%; pest or weed control at 70 g/ha [10]: 0 to 29%; pest or weed control at 35 g/ha [11]: 0 to 29%; pest or weed control at 70 g/ha [11]: 0 to 29%; pest or weed control at 140 g/ha [11]: 0 to 29%
